The source of these data is the supplement of paper PMC10307832.

Holding throughout (assay): relative viability (nuclei count vs DMSO), 5 days (fraction); higher = more cells survive
Compound in experiment [1]: CCC1=CN=CN=C1N2CCN(CC2)CC3=NC4=C(N3)C=C(C=C4)C(F)(F)F + CCNC(=O)c1noc(-c2cc(C(C)C)c(O)cc2O)c1-c1ccc(CN2CCOCC2)cc1 [Luminespib] (partner 0.01 µM)
The essentials: (§1)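 Five library-drug doses in √10 steps were combined with a fixed anchor-drug dose, or a single drug was given alone, by pin tool to lung cancer cell lines in 1536-well plates the day after seeding. Nuclei were stained and counted after 5 days. Relative viability is the nuclei count in treated wells over that in vehicle wells, taken as the median of duplicate plates.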

Compound in experiment [2]: CCn1c(-c2nonc2N)nc2cnc(Oc3cccc(NC(=O)c4ccc(OCCN5CCOCC5)cc4)c3)cc21 + CS(=O)(=O)CCNCc1ccc(-c2ccc3ncnc(Nc4ccc(OCc5cccc(F)c5)c(Cl)c4)c3c2)o1 [Lapatinib] (partner 2 µM)
In short, it runs like this: as §1

Compound in the experiment “Mirin + Foretinib”: N=C1NC(=O)/C(=C/c2ccc(O)cc2)S1 [Mirin] + COc1cc2c(Oc3ccc(NC(=O)C4(C(=O)Nc5ccc(F)cc5)CC4)cc3F)ccnc2cc1OCCCN1CCOCC1 [Foretinib] (partner 0.25 µM)
The essentials: as §1

Compound in the experiment “Mirin + Alpelisib”: N=C1NC(=O)/C(=C/c2ccc(O)cc2)S1 [Mirin] + Cc1nc(NC(=O)N2CCC[C@H]2C(N)=O)sc1-c1ccnc(C(C)(C)C(F)(F)F)c1 [Alpelisib] (partner 2 µM)
The essentials:
as §1

Take UMC-11: the relative viability in experiment [1] (first compound 0.04 µM) came out at 0.974; in experiment [1] (first compound 0.1265 µM) it was 1.05; in experiment [1] (first compound 0.4 µM), 0.917; in experiment [1] (first compound 1.265 µM) it was 0.902; in experiment [1] (first compound 4 µM), 0.746; in experiment [2] (first compound 0.04 µM), 0.959. Further, the relative viability was found to be 0.833 in experiment [2] (first compound 0.1265 µM); 0.509 in experiment [2] (first compound 0.4 µM); 0.223 in experiment [2] (first compound 1.265 µM); 0.258 in experiment [2] (first compound 4 µM); 1.03 with Mirin + Foretinib (first compound 0.25 µM); 1.05 in the experiment with Mirin + Foretinib (first compound 0.7906 µM). For the same cell line, the relative viability was determined as 1 in the experiment with Mirin + Foretinib (first compound 2.5 µM); 0.918 with Mirin + Foretinib (first compound 7.906 µM); 0.61 in the experiment with Mirin + Foretinib (first compound 25 µM); 1.03 in the experiment with Mirin + Alpelisib (first compound 0.25 µM); 0.958 with Mirin + Alpelisib (first compound 0.7906 µM); 0.96 with Mirin + Alpelisib (first compound 2.5 µM). In addition, the relative viability turned out to be 0.935 with Mirin + Alpelisib (first compound 7.906 µM) and 0.572 in the experiment with Mirin + Alpelisib (first compound 25 µM).
